In patent US4948894A, “8-fluoro and 7, 8, 10-trifluoro-9-(substituted)-6-oxo-6H-benzo-(C)quinolizine-5-carboxylic acids” (American Cyanamid Company, priority 1989, dated 1990):
Read-outs that look alike come from different tables or passages of the source.

Assays:
Assay in all cases: In vitro antibacterial spectrum, agar plate dilution method (MIC)
Format in all cases: cell-based
Citrobacter diversus = settings: Citrobacter koseri; Citrobacter diversus K 82-24; Mueller-Hinton agar, 10^4 CFU, 18 hours at 35° C
Experimental: (§1) The in vitro antimicrobial spectrum of the compounds of the invention were determined by the agar plate dilution method with Mueller-Hinton agar and an inoculum of each test organism of approximately 10^4 colony forming units delivered by the steers replicating device. The minimal inhibitory concentration (MIC) in mcg/ml is defined as the lowest concentration of test compound that inhibited visible growth after 18 hours incubation at 35° C.

Enterobacter cloacae = settings: 18 h, 10^4 CFU, 18 hours at 35° C
Experimental: as §1

Escherichia coli = settings: 10^4 CFU, 18 hours at 35° C
Experimental: as §1

Klebsiella nneumoniae = settings: Mueller-Hinton agar, 10^4 CFU, 18 hours at 35° C
Experimental: as §1

Morganella morganii = settings: 18 h, 10^4 CFU, 18 hours at 35° C
Experimental: as §1

Proteus rettgeri = settings: Providencia rettgeri; Proteus rettgeri IO 83-21; Mueller-Hinton agar, 10^4 CFU, 18 hours at 35° C
Experimental: as §1

Providencia stuartii = Providencia stuartii CMC 83-3; Mueller-Hinton agar, 10^4 CFU, 18 hours at 35° C
Experimental: as §1

Pseudomonas aeruginosa = settings: Mueller-Hinton agar, 10^4 CFU, 18 hours at 35° C
Experimental: as §1

Serratia marcescens = settings: 18 h, 10^4 CFU, 18 hours at 35° C
Experimental: as §1

Staphylococcus aureus = settings: Mueller-Hinton agar, 10^4 CFU, 18 hours at 35° C
Experimental: as §1

Streptococcus faecalis = settings: Mueller-Hinton agar, 10^4 CFU, 18 hours at 35° C
Experimental: as §1

Measured: MIC

CN1CCN(c2cc3c(cc2F)c(=O)c(C(=O)O)c2ccccn23)CC1 [Example 6, 8-Fluoro-9-(4-methyl-1-piperazinyl)-6-oxo-6H-benzo[c]quinolizine-5-carboxylic acid]
2 µg/mL: Enterobacter cloacae; Enterobacter cloacae K 84-10, Mueller-Hinton agar | Enterobacter cloacae; Enterobacter cloacae VGH 84-39, Mueller-Hinton agar | Escherichia coli; 18 h, Escherichia coli CMC 84-50, Mueller-Hinton agar | Escherichia coli; 18 h, Escherichia coli D 22, Mueller-Hinton agar | Escherichia coli; 18 h, Escherichia coli MOR 84-20, Mueller-Hinton agar | Serratia marcescens; Serratia marcescens MOR 84-41, Mueller-Hinton agar
> 16 µg/mL: Providencia stuartii | Pseudomonas aeruginosa; Pseudomonas aeruginosa CMC 83-20 | Pseudomonas aeruginosa; Pseudomonas aeruginosa K 84-16, read-out: MIC | Pseudomonas aeruginosa; Pseudomonas aeruginosa VGH 84-3 | Serratia marcescens; Serratia marcescens CMC 83-74, Mueller-Hinton agar | Staphylococcus aureus; ATCC25913, Staphylococcus aureus ATCC 25913, read-out: MIC | Staphylococcus aureus; Staphylococcus aureus CMC 83-131 | Staphylococcus aureus; Staphylococcus aureus K 82-26 | Staphylococcus aureus; Staphylococcus aureus VGH 84-47, read-out: MIC | Streptococcus faecalis; Enterococcus faecalis, Streptococcus faecalis VCI 85-30, read-out: MIC | Streptococcus faecalis; Streptococcus faecalis CMC 83-120 | Streptococcus faecalis; Streptococcus faecalis VGH 84-69
1 µg/mL: Proteus rettgeri
8 µg/mL: Klebsiella nneumoniae; Klebsiella nneumoniae IO 83-5 | Klebsiella nneumoniae; Klebsiella nneumoniae MOR 84-24, read-out: MIC | Klebsiella nneumoniae; Klebsiella oneumoniae CMC 84-31
16 µg/mL: Enterobacter cloacae; Enterobacter cloacae MOR 84-30, Mueller-Hinton agar
4 µg/mL: Citrobacter diversus | Escherichia coli; 18 h, Escherichia coli D 21, Mueller-Hinton agar | Escherichia coli; 18 h, Escherichia coli VGH 84-19, Mueller-Hinton agar | Escherichia coli; ATCC25922, 18 h, Escherichia coli ATCC 25922, Mueller-Hinton agar | Morganella morganii; Morganella morganii VGH 84-12, Mueller-Hinton agar | Serratia marcescens; Serratia marcescens IO 83-63, Mueller-Hinton agar
0.5 µg/mL: Morganella morganii; Morganella morganii CMC 84-38, Mueller-Hinton agar | Morganella morganii; Moroanella morganii MOR 84-45, Mueller-Hinton agar
